Source: article PMC10217311 (Gels, 2023)
In brackets after ≈: the same amount, converted by molar mass.

Legend:
[1] = for T5%, decomposition temperature, 5% weight loss of the initial mass / T50%, decomposition temperature, 50% weight loss of the initial mass: TG, oxidative conditions
Description: The thermal stability of drugs is an essential property necessary to control the formulation method of the finished drug. […] Both the temperature at which decomposition begins (Tonset) and the temperature at which mass loss accelerates to its maximum (Tmax) were identified. […]
XRD, thermal stability (TG), phase transition temperatures (DSC), specific rotation, solubility in water, and lipophilicity were also determined. […]
Thermal stability was assessed using thermogravimetric analyses performed on a Netzsch thermomicrobalance TG 209 F1 Libra. The analysis was conducted under oxidative conditions, with a nitrogen flow (as protective gas) of 10 mL/min, an airflow of 25 mL/min, and a temperature range of 25 to 1000 °C. Samples of roughly 5 mg weight were heated at 10°/min. The onset decomposition temperature was calculated using the intersection of TG curve tangents. The temperatures associated with the quickest sample weight loss were calculated using the first derivative of the TG curve (DTG curve). […]

physchem [2] = assay: physchem
Description: Lipophilicity is essential for predicting the hydrophobicity and partitioning of drugs in biological systems. Therefore, the test was prepared using the shake-flask method.

physchem [3] = assay: physchem; remark: listed apart in the source
Description: The following oils were used in the research: hemp oil, evening primrose oil, and sunflower oil, as well as the following surfactants: Tween 40, Tween 60, Span 80, and Tween 80. […] The study was carried out in screw-cap vials with continuous magnetic stirring at 100 rpm at 25 °C for 48 h. A supersaturated solution was obtained and filtered through a syringe filter with MCE (Mixed Cellulose Ester) membrane (0.45 µm, ⌀ 47 mm). The content of the compound in the solution was determined by HPLC. The HPLC analyses were performed using a Shimadzu (Kyoto, Japan) Nexera-i LC-2040C 3D High Plus liquid chromatograph equipped with a DAD/FLD detector and Kinetex® F5 column 100 Å ([…]; 150 × 4.6 mm; Phenomenex, Torrance, CA, USA) maintained at 35 °C. The mixture of acetonitrile and water 60/40 (v/v) was used as the mobile phase under isocratic conditions, with a flow rate of 0.5 mL/min. The detection wavelength was 210 nm. The collected data were acquired and processed using LabSolutions/LC Solution System. Each measurement was performed in triplicate, and the results were averaged.

[4] = Permeation of the active substance through the skin, Franz diffusion cell; type: in vitro ADME, pig; settings: 24 h permeation test; abstract prints human skin
Source text: The steady-state flux was estimated from the slope of the linear portion of the plot of cumulative mass in the acceptor phase over time.

Row | Compound | Tonset, the onset temperature of the thermal degradation [1] | T5%, decomposition temperature, 5% weight loss of the initial mass [1] | T50%, decomposition temperature, 50% weight loss of the initial mass [1] | logP (physchem [2]) | solubility at 48 h (physchem [3]; Span 80, 25 °C, aqueous with cosolvent or surfactant or cyclodextrin, thermodynamic from solid) | solubility at 48 h (physchem [3]; Tween 40) | solubility at 48 h (physchem [3]; Tween 60, 25 °C, aqueous with cosolvent or surfactant or cyclodextrin, thermodynamic from solid) | solubility at 48 h (physchem [3]; Tween 80) | solubility at 48 h (physchem [3]; evening primrose oil, 25 °C, oil or lipid, thermodynamic from solid) | solubility at 48 h (physchem [3]; hemp oil) | Solubility (physchem [3]; in Sunflower oil, 25 °C, mean ± S.D., n = 3) | Average cumulative mass of IBU after 24 h from emulsion-based gel, times higher than commercial products [4]
1 | CC(C)Cc1ccc(C(C)C(=O)O)cc1 (stereo not drawn) [IBU, ibuprofen] | 193.2 °C | 162.1 °C | 210.3 °C | 2.758 ± 0.014 | 56.89 ± 0.15 mg/mL (≈ 276 mM) | 466.1 ± 1.71 mg/mL (≈ 2260 mM) | 519.6 ± 0.69 mg/mL (≈ 2520 mM) | 411 ± 4.18 mg/mL (≈ 1990 mM) | 76.74 ± 0.35 mg/mL (≈ 372 mM) | 95.44 ± 0.03 mg/mL (≈ 463 mM) | 65.10 ± 1.92 mg/mL (≈ 316 mM) | 1.6–4.0 times
2 | CC(C)Cc1ccc(C(C)C(=O)[O-])cc1.[Na+] (stereo not drawn) [IBUNa, sodium ibuprofenate] | 265.4 °C | 285.4 °C | 445.1 °C |  |  |  |  |  |  |  |  | 
